Results published in US9873680B2 (Gilead Sciences, Inc., priority 2014, dated 2018).
Read-outs that look alike come from different tables or passages of the source.

Columns and labels:
[1] = Test B: Cytotoxicity Assay; assay type: cell-based; conditions: human, uninfected MT-4 cells, CellTiter-Glo
Protocol: Test B: Cytotoxicity Assay Compound cytotoxicity and the corresponding CC50 values was determined using the same protocol as described in the antiviral assay (Test A) except that uninfected cells were used.

HIV-IIIb = assay: Test A: Antiviral Assay in MT4 Cells; assay type: cell-based, HIV-1; conditions: for inhibition at 2 µM: 2 μM drug concentration, read-out: Response at 2 μM (percent inhibition of virus-induced cell killing)
Method in brief: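 MT-4 cells were preinfected with HIV-IIIb […]. Cell viability, as protection from viral cytopathic effect, was read by CellTiter-Glo chemiluminescence.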

[2] = Human immunodeficiency virus 1, IIIB, MT4, 0.2 μM drug concentration, comparison with previously published compounds, read-out: Response at 0.2 μM (percent inhibition of virus-induced cell killing)
[3] = Human immunodeficiency virus 1, IIIB, MT4, comparison with previously published compounds
[4] = Human immunodeficiency virus 1, MT4, 120 h, 0.2 μM drug concentration, MT-4 cells infected with HIV-IIIb, 5 days, values normalized to 100%, average over time, read-out: % inhibition at 0.2 μM (percent inhibition of virus-induced cell killing)

Row | SMILES | CC50 at 5 days [1] | inhibition at 0.2 µM (HIV-IIIb; Human immunodeficiency virus 1, IIIB, MT4, 120 h, read-out: % inhibition at 0.2 μM (percent inhibition of virus-induced cell killing)) | inhibition at 0.2 µM (HIV-IIIb; [2]) | inhibition at 2 µM (HIV-IIIb; [3]) | inhibition at 0.2 µM (HIV-IIIb; [4])
1 | Cn1nc(NS(C)(=O)=O)c2c(Cl)ccc(-c3ccc(C#CC4CCCNC4)nc3[C@H](Cc3cc(F)cc(F)c3)NC(=O)Cn3nc(C(F)(F)F)c4c3C(F)(F)[C@@H]3C[C@H]43)c21 (stereo partly drawn) [Compound 73, N-((1S)-1-(3-(4-chloro-1-methyl-3-(methylsulfonamido)-1H-indazol-7-yl)-6-(piperidin-3-ylethynyl)pyridin-2-yl)-2-(3,5-difluorophenyl)ethyl)-2-((3bS,4aR)-5,5-difluoro-3-(trifluoromethyl)-3b,4,4a,5-tetrahydro-1H-cyclopropa[3,4]cyclopenta[1,2-c]pyrazol-1-yl)acetamide] | 6 µM | 100% | – | – | –
2 | Cn1nc(NS(C)(=O)=O)c2c(Cl)ccc(-c3ccc(C#CC4CC4)nc3[C@H](Cc3cc(F)cc(F)c3)NC(=O)Cn3nc(C(F)F)c4c3C(F)(F)[C@@H]3C[C@H]43)c21 [Compound 96, N—((S)-1-(3-(4-chloro-1-methyl-3-(methylsulfonamido)-1H-indazol-7-yl)-6-(cyclopropylethynyl)pyridin-2-yl)-2-(3,5-difluorophenyl)ethyl)-2-((3bS,4aR)-3-(difluoromethyl)-5,5-difluoro-3b,4,4a,5-tetrahydro-1H-cyclopropa[3,4]cyclopenta[1,2-c]pyrazol-1-yl)acetamide] | 20.1 µM | – | 82% | 82% | 82%
3 | Cn1nc(NS(C)(=O)=O)c2c(Cl)ccc(-c3ccc(C#CC4(O)CCOCC4)nc3[C@H](Cc3cc(F)cc(F)c3)NC(=O)Cn3nc(C(F)F)c4c3C(F)(F)[C@@H]3C[C@H]43)c21 [Compound 40, N—((S)-1-(3-(4-chloro-1-methyl-3-(methylsulfonamido)-1H-indazol-7-yl)-6-((4-hydroxytetrahydro-2H-pyran-4-yl)ethynyl)pyridin-2-yl)-2-(3,5-difluorophenyl)ethyl)-2-((3bS,4aR)-3-(difluoromethyl)-5,5-difluoro-3b,4,4a,5-tetrahydro-1H-cyclopropa[3,4]cyclopenta[1,2-c]pyrazol-1-yl)acetamide] | 17 µM | – | – | – | 96%
4 | Cn1cnc(C#Cc2ccc(-c3ccc(Cl)c4c(NS(C)(=O)=O)nn(C)c34)c([C@H](Cc3cc(F)cc(F)c3)NC(=O)Cn3nc(C(F)(F)F)c4c3C(F)(F)[C@@H]3C[C@H]43)n2)c1 [Compound 67, N—((S)-1-(3-(4-chloro-1-methyl-3-(methylsulfonamido)-1H-indazol-7-yl)-6-((1-methyl-1H-imidazol-4-yl)ethynyl)pyridin-2-yl)-2-(3,5-difluorophenyl)ethyl)-2-((3bS,4aR)-5,5-difluoro-3-(trifluoromethyl)-3b,4,4a,5-tetrahydro-1H-cyclopropa[3,4]cyclopenta[1,2-c]pyrazol-1-yl)acetamide] | > 53.2 µM | – | – | – | 87%
5 | Cc1nccn1C(C)(C)C#Cc1ccc(-c2ccc(Cl)c3c(NS(C)(=O)=O)nn(C)c23)c([C@H](Cc2cc(F)cc(F)c2)NC(=O)Cn2nc(C(F)(F)F)c3c2C(F)(F)[C@@H]2C[C@H]32)n1 [Compound 90, N—((S)-1-(3-(4-chloro-1-methyl-3-(methylsulfonamido)-1H-indazol-7-yl)-6-(3-methyl-3-(2-methyl-1H-imidazol-1-yl)but-1-yn-1-yl)pyridin-2-yl)-2-(3,5-difluorophenyl)ethyl)-2-((3bS,4aR)-5,5-difluoro-3-(trifluoromethyl)-3b,4,4a,5-tetrahydro-1H-cyclopropa[3,4]cyclopenta[1,2-c]pyrazol-1-yl)acetamide] | 3.04 µM | – | – | – | 98%
6 | Cc1cc(C#Cc2ncc(-c3ccc(F)c(C(N)=O)c3)c([C@H](Cc3cc(F)cc(F)c3)NC(=O)Cn3nc(C(F)(F)F)c4c3C(F)(F)[C@@H]3C[C@H]43)n2)ccn1 [Compound 18C, 5-(4-((S)-1-(2-((3bS,4aR)-5,5-difluoro-3-(trifluoromethyl)-3b,4,4a,5-tetrahydro-1H-cyclopropa[3,4]cyclopenta[1,2-c]pyrazol-1-yl)acetamido)-2-(3,5-difluorophenyl)ethyl)-2-((2-methylpyridin-4-yl)ethynyl)pyrimidin-5-yl)-2-fluorobenzamide] | 2.31 µM | – | 90% | 94% | 90%
7 | NC(=O)c1cc(-c2ccc(C#CC3(O)CCCC3)nc2[C@H](Cc2cc(F)cc(F)c2)NC(=O)Cn2nc(C(F)(F)F)c3c2C(F)(F)[C@@H]2C[C@H]32)ccc1F [Compound 15B, 5-(2-((S)-1-(2-((3bS,4aR)-5,5-difluoro-3-(trifluoromethyl)-3b,4,4a,5-tetrahydro-1H-cyclopropa[3,4]cyclopenta[1,2-c]pyrazol-1-yl)acetamido)-2-(3,5-difluorophenyl)ethyl)-6-((1-hydroxycyclopentyl)ethynyl)pyridin-3-yl)-2-fluorobenzamide] | 3.02 µM | – | 68% | 68% | 68%
8 | CC(C)N1CCO[C@](C)(C#Cc2ccc(-c3ccc(Cl)c4c(NS(C)(=O)=O)nn(C)c34)c([C@H](Cc3cc(F)cc(F)c3)NC(=O)Cn3nc(C(F)F)c4c3C(F)(F)[C@@H]3C[C@H]43)n2)C1 [Compound 87, N—((S)-1-(3-(4-chloro-1-methyl-3-(methylsulfonamido)-1H-indazol-7-yl)-6-(((R)-4-isopropyl-2-methylmorpholin-2-yl)ethynyl)pyridin-2-yl)-2-(3,5-difluorophenyl)ethyl)-2-((3bS,4aR)-3-(difluoromethyl)-5,5-difluoro-3b,4,4a,5-tetrahydro-1H-cyclopropa[3,4]cyclopenta[1,2-c]pyrazol-1-yl)acetamide] | 19.5 µM | – | – | – | 100%
9 | Cn1nc(NS(C)(=O)=O)c2c(Cl)ccc(-c3ccc(C#CC4(CO)CCCC4)nc3[C@H](Cc3cc(F)cc(F)c3)NC(=O)Cn3nc(C(F)(F)F)c4c3C(F)(F)[C@@H]3C[C@H]43)c21 [Compound 45B, N—((S)-1-(3-(4-chloro-1-methyl-3-(methylsulfonamido)-1H-indazol-7-yl)-6-((1-(hydroxymethyl)cyclopentyl)ethynyl)pyridin-2-yl)-2-(3,5-difluorophenyl)ethyl)-2-((3bS,4aR)-5,5-difluoro-3-(trifluoromethyl)-3b,4,4a,5-tetrahydro-1H-cyclopropa[3,4]cyclopenta[1,2-c]pyrazol-1-yl)acetamide] | 7.35 µM | – | – | – | 93%
10 | Cn1nc(NS(C)(=O)=O)c2c(Cl)ccc(-c3ccc(C#CC4CNCCO4)nc3[C@H](Cc3cc(F)cc(F)c3)NC(=O)Cn3nc(C(F)(F)F)c4c3C(F)(F)[C@@H]3C[C@H]43)c21 (stereo partly drawn) [Compound 53B, N-((1S)-1-(3-(4-chloro-1-methyl-3-(methylsulfonamido)-1H-indazol-7-yl)-6-(morpholin-2-ylethynyl)pyridin-2-yl)-2-(3,5-difluorophenyl)ethyl)-2-((3bS,4aR)-5,5-difluoro-3-(trifluoromethyl)-3b,4,4a,5-tetrahydro-1H-cyclopropa[3,4]cyclopenta[1,2-c]pyrazol-1-yl)acetamide] | 6.81 µM | – | – | – | 100%
